Laboratory results as given in US10004232B2 (priority 2011, dated 2018).

Legend:
Phytophthora infestans = assay type: in vivo; details: young tomato plants, protective spray, active ingredient concentration 100 ppm, evaluation 7 days after inoculation
[1] = logP determination by HPLC on reversed-phase columns (C 18), EEC Directive 79/831 Annex V.A8; assay type: physicochemical; details: for chromatographic logP: reversed-phase C18 HPLC column
Source text: Calibration takes place using unbranched alkan-2-ones (having 3 to 16 carbon atoms) whose log P values are known (log P values determined on the basis of the retention times, by linear interpolation between two successive alkanones).

Plasmopara viticola = assay: Plasmopara test (grapevine) / protective; assay type: in vivo; details: young grapevine plants, protective spray, active ingredient concentration 10 ppm, evaluation 6 days after inoculation
Experimental: Plasmopara Test (Grapevine)/Protective
Solvent: 24.5 parts by weight of acetone
• 24.5 parts by weight of dimethylacetamide Emulsifier: 1 part by weight of alkylaryl polyglycol ether
An appropriate preparation of active ingredient is prepared by mixing 1 part by weight of active ingredient with the specified amounts of solvent and emulsifier, and diluting the concentrate with water to the desired concentration.
To test for protective activity, young plants are sprayed with the preparation of active ingredient at the specified application rate. After the spray coating has dried on, the plants are inoculated with an aqueous spore suspension of Plasmopara viticola and then spend 1 day in an incubation cabinet at about 20° C. and 100% relative atmospheric humidity. The plants are subsequently placed for 4 days in a greenhouse at about 21° C. and about 90% atmospheric humidity. The plants are then moistened and placed in an incubation cabin for 1 day.
Evaluation takes place 6 days after inoculation. Here, 0% denotes an efficacy which corresponds to that of the control, whereas an efficacy of 100% means that no infestation is observed.

[2] = [a] LC-MS in the acidic range, pH 2.7, 0.1% aqueous formic acid and acetonitrile
[3] = [b] LC-MS in the neutral range, pH 7.8, 0.001 molar aqueous ammonium hydrogencarbonate and acetonitrile

| Structure (SMILES) | Eff. % (Phytophthora infestans) | LogP [1, 2] | LogP [1, 3] | Eff. % (Plasmopara viticola) | chromatographic logP [1, 2] | chromatographic logP [1, 3] |
| --- | --- | --- | --- | --- | --- | --- |
| C=CCOc1cc(Cl)cc(Cl)c1C1CC(c2csc(C3CCN(C(=O)Cn4nc(C(F)F)cc4C(F)F)CC3)n2)=NO1 (racemic) [Example I-18] | 95% | 4.29 | 4.2 | 96% | – | – |
| CS(=O)(=O)Nc1cc(F)c(C2CC(c3csc(C4CCN(C(=O)Cn5nc(C(F)F)cc5C(F)F)CC4)n3)=NO2)c(F)c1 (stereo not drawn) [Example I-5, N-(4-{3-[2-(1-{[3,5-Bis(difluoromethyl)-1H-pyrazol-1-yl]acetyl}piperidin-4-yl)-1,3-thiazol-4-yl]-4,5-dihydro-1,2-oxazol-5-yl}-3,5-difluorophenyl)methanesulphonamide] | 95% | – | – | 96% | 2.63 | – |
| C#CCOc1cc(C)c(C)cc1C1(C)CC(c2csc(C3CCN(C(=O)Cn4nc(C(F)F)cc4C(F)F)CC3)n2)=NO1 (stereo not drawn) [Example I-1, 2-[3,5-Bis(difluoromethyl)-1H-pyrazol-1-yl]-1-[4-(4-{5-[4,5-dimethyl-2-(prop-2-yn-1-yloxy)phenyl]-5-methyl-4,5-dihydro-1,2-oxazol-3-yl}-1,3-thiazol-2-yl)piperidin-1-yl]ethanone] | 98% | – | – | – | 4.1 | 4.04 |
| O=C(Oc1cc(F)c(C2CC(c3csc(C4CCN(C(=O)Cn5nc(C(F)F)cc5C(F)F)CC4)n3)=NO2)c(F)c1)C1CC1 (racemic) [Example I-9] | – | 3.53^[a] | – | – | – | – |
| C=CCOc1cc(F)c(C2CC(c3csc(C4CCN(C(=O)Cn5nc(C(F)F)cc5C(F)F)CC4)n3)=NO2)c(F)c1 (racemic) [Example I-11] | – | 3.7^[a] | – | – | – | – |
| C=C(Cl)COc1ccc(F)c(F)c1C1CC(c2csc(C3CCN(C(=O)Cn4nc(C(F)F)cc4C(F)F)CC3)n2)=NO1 (racemic) [Example I-7] | – | 3.68 | 3.69 | 100% | – | – |
| C#CCOc1cc(Cl)cc(Cl)c1C1CC(c2csc(C3CCN(C(=O)Cn4nc(C(F)F)cc4C(F)F)CC3)n2)=NO1 (racemic) [Example I-21] | 95% | 3.94 | 3.85 | 100% | – | – |
| C=CCOc1ccc(F)c(F)c1C1CC(c2csc(C3CCN(C(=O)Cn4nc(C(F)F)cc4C(F)F)CC3)n2)=NO1 (racemic) [Example I-17] | – | 3.53 | 3.56 | 100% | – | – |
| C#CCOc1c(F)ccc(F)c1C1CC(c2csc(C3CCN(C(=O)Cn4nc(C(F)F)cc4C(F)F)CC3)n2)=NO1 (racemic) [Example I-12] | – | 3.31 | 3.3 | – | – | – |
| C#CCOc1cc(F)cc(F)c1C1CC(c2csc(C3CCN(C(=O)Cn4nc(C(F)F)cc4C(F)F)CC3)n2)=NO1 (racemic) [Example I-13] | – | 3.32^[a] | – | 100% | – | – |
| C#CCOc1ccc(F)c(F)c1C1CC(c2csc(C3CCN(C(=O)Cn4nc(C(F)F)cc4C(F)F)CC3)n2)=NO1 (racemic) [Example I-8] | – | 3.3 | 3.27 | 100% | – | – |
| C=CCOc1cc(F)cc(F)c1C1CC(c2csc(C3CCN(C(=O)Cn4nc(C(F)F)cc4C(F)F)CC3)n2)=NO1 (racemic) [Example I-20] | – | 3.67 | 3.58 | 100% | – | – |
| C#CCOc1ccc(F)c(C2CC(c3csc(C4CCN(C(=O)Cn5nc(C(F)F)cc5C(F)F)CC4)n3)=NO2)c1F (stereo not drawn) [Example I-2, 2-[3,5-Bis(difluoromethyl)-1H-pyrazol-1-yl]-1-[4-(4-{5-[2,6-difluoro-3-(prop-2-yn-1-yloxy)phenyl]-4,5-dihydro-1,2-oxazol-3-yl}-1,3-thiazol-2-yl)piperidin-1-yl]ethanone] | 94% | – | – | 100% | 3.26 | 3.18 |
| O=C(Cn1nc(C(F)F)cc1C(F)F)N1CCC(c2nc(C3=NOC(c4c(F)cc(F)cc4OCC4CC4)C3)cs2)CC1 (racemic) [Example I-15] | – | 3.81 | 3.76 | – | – | – |
| C#CCOc1c(F)cc(F)cc1C1CC(c2csc(C3CCN(C(=O)Cn4nc(C(F)F)cc4C(F)F)CC3)n2)=NO1 (racemic) [Example I-10] | – | 3.58 | 3.51 | – | – | – |
| C=C(Cl)COc1cc(F)cc(F)c1C1CC(c2csc(C3CCN(C(=O)Cn4nc(C(F)F)cc4C(F)F)CC3)n2)=NO1 (racemic) [Example I-19] | – | 3.79 | 3.7 | 100% | – | – |
| O=C(Oc1cc(F)cc(F)c1C1CC(c2csc(C3CCN(C(=O)Cn4nc(C(F)F)cc4C(F)F)CC3)n2)=NO1)C1CC1 (racemic) [Example I-16] | – | 3.5 | 3.42 | – | – | – |
| O=C(Cn1nc(C(F)F)cc1C(F)F)N1CCC(c2nc(C3=NOC(c4c(OC/C=C\Cl)ccc(F)c4F)C3)cs2)CC1 (racemic) [Example I-6] | – | 3.79 | 3.71 | – | – | – |
| O=Cc1cc(F)c(C2CC(c3csc(C4CCN(C(=O)Cn5nc(C(F)F)cc5C(F)F)CC4)n3)=NO2)c(F)c1 (racemic) [Example I-14] | – | 2.93 | 2.87 | – | – | – |
| C=CCOc1ccc(F)c(C2CC(c3csc(C4CCN(C(=O)Cn5nc(C(F)F)cc5C(F)F)CC4)n3)=NO2)c1F (stereo not drawn) [Example I-4, 1-[4-(4-{5-[3-(Allyloxy)-2,6-difluorophenyl]-4,5-dihydro-1,2-oxazol-3-yl}-1,3-thiazol-2-yl)piperidin-1-yl]-2-[3,5-bis(difluoromethyl)-1H-pyrazol-1-yl]ethanone] | 95% | – | – | 100% | 3.59 | 3.51 |
| C#CCOc1cc(F)c(C2CC(c3csc(C4CCN(C(=O)Cn5nc(C(F)F)cc5C(F)F)CC4)n3)=NO2)c(F)c1 (racemic) [Example I-3] | 98% | 3.3 | 3.26 | 100% | – | – |
